Experimental data from patent US8497075B2, “Methods of identifying a modulator that inhibits the binding between Epstein-Barr virus induced receptor 2 and cholesterol derived ligands” (Novartis AG, priority 2008, dated 2013).

What was measured:
Format in all cases: cell-based
FXRa (NR1H4) = target: T1, FXRa (NR1H4) (Homo sapiens, UniProt Q96RI1); experiment: nuclear hormone receptor reporter gene assay; settings: concentrations up to 10 μM
T1 sequence (Q96RI1 1-486): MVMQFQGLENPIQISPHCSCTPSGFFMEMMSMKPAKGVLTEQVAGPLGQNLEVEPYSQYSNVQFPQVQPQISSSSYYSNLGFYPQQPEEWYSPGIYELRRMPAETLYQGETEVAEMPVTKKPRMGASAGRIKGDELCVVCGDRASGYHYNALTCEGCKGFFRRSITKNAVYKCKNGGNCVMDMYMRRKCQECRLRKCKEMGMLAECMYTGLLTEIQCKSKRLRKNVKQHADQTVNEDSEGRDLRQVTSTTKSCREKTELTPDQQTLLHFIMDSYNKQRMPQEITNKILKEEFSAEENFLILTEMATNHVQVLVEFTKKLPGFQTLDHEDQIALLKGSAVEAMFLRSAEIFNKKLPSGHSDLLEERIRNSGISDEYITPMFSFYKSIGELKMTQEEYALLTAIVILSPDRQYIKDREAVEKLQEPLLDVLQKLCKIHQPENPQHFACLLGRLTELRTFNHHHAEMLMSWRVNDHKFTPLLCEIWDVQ
From the text: (§1) So far oxysterols have been noted to have various physiological activities namely regulate the expression of genes that participate in both sterol and fat metabolism, serve as substrates for the synthesis of bile acids, and are intermediates in the transfer of sterols from the periphery to the liver (Russell, D. W. (2000). Oxysterol biosynthetic enzymes. Biochim. Biophys. Acta 1529, 126-135). […] This included binding assays for 26 different GPCRs, functional assays of 9 different GPCRs, 40 kinase assays, as well as selected ion channels, proteases, transporter and enzyme assays.

GR (NR3C1) = target: T2, GR (NR3C1) (Homo sapiens, UniProt P04150); experiment: nuclear hormone receptor reporter gene assay; settings: concentrations up to 10 μM
T2 sequence (P04150 1-777): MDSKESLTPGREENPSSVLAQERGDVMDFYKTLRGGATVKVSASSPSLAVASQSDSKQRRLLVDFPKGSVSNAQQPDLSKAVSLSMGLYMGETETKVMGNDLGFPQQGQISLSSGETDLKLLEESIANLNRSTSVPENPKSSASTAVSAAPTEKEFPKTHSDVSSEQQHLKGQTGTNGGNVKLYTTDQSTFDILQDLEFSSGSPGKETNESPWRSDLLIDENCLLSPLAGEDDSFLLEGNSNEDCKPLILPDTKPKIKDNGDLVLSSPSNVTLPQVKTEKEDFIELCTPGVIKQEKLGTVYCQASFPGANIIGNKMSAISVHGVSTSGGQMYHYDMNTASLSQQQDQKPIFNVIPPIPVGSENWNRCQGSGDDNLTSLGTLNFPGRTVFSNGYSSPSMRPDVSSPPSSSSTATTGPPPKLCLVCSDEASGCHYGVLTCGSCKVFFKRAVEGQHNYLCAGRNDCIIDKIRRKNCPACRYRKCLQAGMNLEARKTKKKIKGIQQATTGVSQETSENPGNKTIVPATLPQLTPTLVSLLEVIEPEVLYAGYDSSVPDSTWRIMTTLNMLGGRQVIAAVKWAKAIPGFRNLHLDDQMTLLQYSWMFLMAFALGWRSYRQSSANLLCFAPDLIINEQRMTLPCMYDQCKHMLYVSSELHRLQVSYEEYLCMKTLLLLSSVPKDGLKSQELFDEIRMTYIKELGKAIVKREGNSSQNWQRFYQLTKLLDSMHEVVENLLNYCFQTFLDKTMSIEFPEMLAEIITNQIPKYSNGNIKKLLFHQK
From the text: as §1

hEBI2 [1] = target: T3, hEBI2 (Homo sapiens, UniProt P32249); experiment: aequorin assay, hEBI2 stably transfected CHO-AeqGα16 cells; set-up: expressed in transfected cells; host or cells: CHO-K1 expressing apoaequorin (CHO-Aeq) with Gqi5; line E2
T3 sequence (P32249 whole entry): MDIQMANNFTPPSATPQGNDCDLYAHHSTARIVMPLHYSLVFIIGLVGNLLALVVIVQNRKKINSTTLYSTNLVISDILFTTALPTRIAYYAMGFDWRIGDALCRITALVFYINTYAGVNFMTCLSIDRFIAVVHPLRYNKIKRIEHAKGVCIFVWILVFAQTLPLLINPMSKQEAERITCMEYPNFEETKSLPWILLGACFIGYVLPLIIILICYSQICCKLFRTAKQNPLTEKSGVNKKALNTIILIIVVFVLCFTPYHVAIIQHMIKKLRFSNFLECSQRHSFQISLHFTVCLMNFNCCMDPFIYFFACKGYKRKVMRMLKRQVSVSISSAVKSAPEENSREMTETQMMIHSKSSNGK
Procedure: Stable cell line expressing human EBI2 (in pcDNA3.1 vector) and Gα16 was generated with parental CHO cells that stably express apo-aequorin (Euroscreen CHO-A12 cell line). The cells were seeded into 384 well black clear bottom plates (Greiner Bio-one) at 10,000 cells/25 μl well in F12 medium containing 3% FBS and incubated overnight. Coelenterazine (20 μM final) was added into the cell plates at 25 μl/well. The cell plates were returned to incubator for 3 hrs. The compounds were diluted 1:20 into an intermediate plate with Tyrode buffer (130 mM NaCl, 2 mM CaCl2, 5 mM NaHCO3, 5 mM KCl, 1 mM MgCl2, 20 mM HEPES, pH 7.4). 12.5 μl/well of pre-diluted compounds were transfered into the cell assay plate and read on LumiLux™ (Perkin Elmer) for flash luminescence.
An algorithm similar to area under curve (AUC) was created in house to analyze the aequorin kinetic data, which was named Slope Threshold (Slope 100). The algorithm defines the beginning and the end of the luminescence intensity peak by comparing the difference in intensity of each time point with an earlier time point, and determining if the difference exceeds a defined threshold, which was usually set at 100. If it does, then the intensity of the later time point is added into the Slope Threshold's sum.

hEBI2 [2] = target: T3, hEBI2; experiment: cAMP assay, hEBI2 CHO-AeqGα16 cells; set-up: expressed in transfected cells; host or cells: CHO-K1 expressing apoaequorin (CHO-Aeq) with Gqi5; line E2
Procedure: The same stable EBI2 cell line used in the aequorin assay was used in cAMP assay. 10,000 cells (25 μA) were seeded per well into white solid 384-well plate and incubated in 37° C. incubator overnight. 500 nl of compound was then transferred into each assay well, followed by 5 μl of forskolin addition for a final concentration of 30 μM. Cells were returned to a 37° C. incubator for 30 min. Finally 15 μl each of HiRange D2-cAMP and anti-cAMP cryptate were dispensed per well. After >1 hr room temperature incubation, data acquisition was done in the time-resolved FRET (fluorescence-resonance energy transfer) mode on Envision™ or ViewLux™ (Perkin Elmer). The ratio between the acceptor fluorescence signal (A665 nm) and donor fluorescence signal (A620 nm)×104, representing the FRET between the conjugated cAMP and the anti-cAMP antibody, was calculated and plotted on Y-axis. The higher the signal, the lower endogenous cAMP concentration is in the sample.

For `CC(CO)CCC[C@@H](C)[C@H]1CC[C@H]2[C@@H]3[C@H](O)C=C4C[C@@H](O)CC[C@]4(C)[C@H]3CC[C@]12C` (some centres unmarked) [7a,27DHC, cholest-5-ene-3b,7a,27-triol], the “activation of FXRa” value (FXRa (NR1H4)) was “did not activate” and the “activation of GR” value (GR (NR3C1)) was “did not activate”.
With `C[C@H](CCCC(C)(C)O)[C@H]1CC[C@H]2[C@@H]3[C@H](O)C=C4C[C@@H](O)CC[C@]4(C)[C@H]3CC[C@]12C` [7a,25DHC, cholest-5-ene-3b,7a,25-triol] the EC50 (hEBI2 [1]) was 18.4 nM, the EC50 (hEBI2 [2]) was 10.3 nM and the “activation of FXRa” value (FXRa (NR1H4)) was “did not activate”. For the same compound, the “activation of GR” value (GR (NR3C1)) was “did not activate”.
`C[C@H](CCCC(C)(C)O)[C@H]1CC[C@H]2[C@@H]3[C@@H](O)C=C4C[C@@H](O)CC[C@]4(C)[C@H]3CC[C@]12C` [7b,25DHC, cholest-5-ene-3b,7b,25-triol] showed an EC50 (hEBI2 [1]; CHO-AeqGα16, read-out: EC50, activation of EBI2 (aequorin)) of 398 nM and an EC50 (hEBI2 [2]; forskolin 30 μM, read-out: EC50, cAMP assay) of 10600 nM.
